Measured values from US20240124439A1, “Pyrido[2,3-D]Imidazole Derivatives and Their Use As Inhibitors of ITK for the Treatment of Skin Disease” (Pfizer Inc., priority 2020, published 2024).

How the values were obtained:
[1] = target: IL-2-Inducible T-Cell Kinase (ITK) (Homo sapiens (Human), UniProt Q08881); experiment: ITK enzyme assay (IL-2-inducible T-cell kinase activity); assay type: biochemical; conditions: geometric mean of count n
How it was run: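 Full-length N-Flag/C-His human ITK, pre-incubated 30 min at RT with compound. Reaction in HEPES pH 7.5 buffer with MgCl2, glutathione, gelatin and Brij-35, started with BTK peptide substrate, 60 min at RT. EDTA stop, PT66/APC TR-FRET detection overnight; IC50 fitted by four-parameter logistic.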

[2] = test system: activated CD4+ human T-cells (IL-2); experiment: IL-2 inhibition in supernatants from activated CD4+ human T-cells (cisbio HTRF); assay type: cell-based; conditions: CD3/CD28-activated CD4+ human T cells, ImmunoCult stimulation 20 to 24 hrs, geometric mean of count n
How it was run: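 Primary human CD4+ T cells activated with CD3/CD28 for 3 days and expanded to 7-9 days total, plated at 30,000 cells/well. Cells preincubated 15 min with compound, then stimulated with ImmunoCult (1:50 final) for 20-24 h at 37° C. Supernatant IL-2 measured by HTRF (665/615 nm); IC50 from four-parameter logistic fit.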

[3] = target: Tropomyosin Receptor Kinase A (TRKA), NTRK1 enzyme (Homo sapiens (Human), UniProt P04629); experiment: TRKA (NTRK1) ThermoFisher Z'-LYTE enzyme assay; assay type: biochemical; conditions: test compound 1 uM, ATP 1 mM; arithmetic mean of count n
Sequence of Tropomyosin Receptor Kinase A (TRKA), NTRK1 enzyme (P04629 33-796): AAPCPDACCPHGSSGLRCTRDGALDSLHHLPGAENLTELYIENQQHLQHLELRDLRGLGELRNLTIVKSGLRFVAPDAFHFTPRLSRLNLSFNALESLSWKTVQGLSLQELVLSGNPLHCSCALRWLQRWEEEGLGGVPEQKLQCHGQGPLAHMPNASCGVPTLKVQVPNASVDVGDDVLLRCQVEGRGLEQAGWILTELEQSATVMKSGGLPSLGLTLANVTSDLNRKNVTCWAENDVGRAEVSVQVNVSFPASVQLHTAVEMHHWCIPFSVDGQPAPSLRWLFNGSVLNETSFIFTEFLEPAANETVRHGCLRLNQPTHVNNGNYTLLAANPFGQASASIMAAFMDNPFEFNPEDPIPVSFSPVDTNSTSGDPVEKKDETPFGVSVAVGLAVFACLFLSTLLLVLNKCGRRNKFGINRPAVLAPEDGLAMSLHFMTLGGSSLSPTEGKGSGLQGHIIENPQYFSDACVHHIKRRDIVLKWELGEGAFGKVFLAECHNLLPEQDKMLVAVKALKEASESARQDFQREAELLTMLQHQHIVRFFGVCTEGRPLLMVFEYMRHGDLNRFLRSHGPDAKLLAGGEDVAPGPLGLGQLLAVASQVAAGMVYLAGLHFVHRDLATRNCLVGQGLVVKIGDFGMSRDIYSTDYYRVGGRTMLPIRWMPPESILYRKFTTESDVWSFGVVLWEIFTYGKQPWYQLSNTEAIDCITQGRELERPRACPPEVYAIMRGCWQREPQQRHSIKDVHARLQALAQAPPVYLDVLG
Protocol: TRKA, also known as neurotrophic tyrosine kinase receptor type 1 (NTKR1) activity was determined by measuring the effect of a test compound on the activity against the NTRK1 enzyme using the ThermoFisher Z′-LYTE Assay fluorescence-based coupled enzyme format (www.thermofisher.com/selectscreen). Test compounds were screened at a fixed concentration of 1 uM and the % inhibition was determined compared to controls at a fixed ATP concentration of 1 mM. The resulting effect value for the tested compound was compared to the assay controls to determine the % inhibition (%).

Sequence of IL-2-Inducible T-Cell Kinase (ITK) (Q08881 whole entry): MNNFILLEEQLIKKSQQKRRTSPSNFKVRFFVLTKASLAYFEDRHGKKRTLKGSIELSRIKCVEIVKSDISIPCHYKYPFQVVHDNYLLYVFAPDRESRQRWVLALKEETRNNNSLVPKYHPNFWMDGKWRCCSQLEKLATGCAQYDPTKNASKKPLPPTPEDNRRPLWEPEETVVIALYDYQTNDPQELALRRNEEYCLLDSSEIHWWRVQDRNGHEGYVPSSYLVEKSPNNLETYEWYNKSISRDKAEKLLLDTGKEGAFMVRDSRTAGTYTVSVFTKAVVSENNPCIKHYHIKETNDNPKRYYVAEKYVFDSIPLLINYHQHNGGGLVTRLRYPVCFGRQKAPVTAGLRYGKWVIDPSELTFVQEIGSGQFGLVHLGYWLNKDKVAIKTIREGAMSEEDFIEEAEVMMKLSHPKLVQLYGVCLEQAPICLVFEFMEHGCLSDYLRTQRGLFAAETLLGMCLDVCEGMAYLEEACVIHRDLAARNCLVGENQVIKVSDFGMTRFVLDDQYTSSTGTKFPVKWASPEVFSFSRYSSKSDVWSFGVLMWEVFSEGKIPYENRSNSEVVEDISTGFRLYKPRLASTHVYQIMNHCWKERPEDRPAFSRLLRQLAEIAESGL

IC50 [1] | IC50 ([2]; T-cell) | inhibition at 1 µM [3] | IC50 [2] | TRKA % inhibition [3] | SMILES
0.102 µM | 0.38 µM | 108% | – | – | CN(C(=O)CN1CCOCC1)c1cnc2nc(-c3n[nH]c4c3C[C@@H]3C[C@]3(C)C4)[nH]c2c1 [Example 58, N-Methyl-N-(2-((4aS,5aR)-5a-methyl-1,4,4a,5,5a,6-hexahydrocyclopropa[f]indazol-3-yl)-1H-imidazo[4,5-b]pyridin-6-yl)-2-morpholinoacetamide]
1.33 µM | 1.85 µM | 54% | – | – | C[C@@H](C(=O)N(C)c1cnc2[nH]c(-c3n[nH]c4c3C[C@@H]3C(F)(F)[C@]3(C)C4)nc2c1)N1CCOCC1 [Example 23, (S)-N-(2-((4aS,5aR)-5,5-Difluoro-5a-methyl-1,4,4a,5,5a,6-hexahydrocyclopropa[f]indazol-3-yl)-3H-imidazo[4,5-b]pyridin-6-yl)-N-methyl-2-morpholinopropanamide]
0.091 µM | 0.338 µM | 98% | – | – | C[C@H](C(=O)N(C)c1cnc2[nH]c(-c3n[nH]c4c3C[C@@H]3C[C@]3(C)C4)nc2c1)C1CCOCC1 [Example 10, (S)-N-Methyl-N-(2-((4aS,5aR)-5a-methyl-1,4,4a,5,5a,6-hexahydrocyclopropa[f]indazol-3-yl)-3H-imidazo[4,5-b]pyridin-6-yl)-2-(tetrahydro-2H-pyran-4-yl)propanamide]
0.031 µM | 0.288 µM | 96% | – | – | CN(c1cnc2nc(-c3n[nH]c4c3C[C@@H]3C[C@]3(C)C4)[nH]c2c1)C(=O)[C@H]1C[C@H](C)C1 [Example 84, (1r,3S)-N,3-Dimethyl-N-(2-((4aS,5aR)-5a-methyl-1,4,4a,5,5a,6-hexahydrocyclopropa[f]indazol-3-yl)-1H-imidazo[4,5-b]pyridin-6-yl)cyclobutane-1-carboxamide]
0.017 µM | 0.167 µM | 94% | – | – | C[C@@H](C(=O)N(C)c1cnc2[nH]c(-c3n[nH]c4c3CCC(C)(C)C4)nc2c1)C1CCOCC1 [Example 32, (R)-N-(2-(6,6-Dimethyl-4,5,6,7-tetrahydro-1H-indazol-3-yl)-3H-imidazo[4,5-b]pyridin-6-yl)-N-methyl-2-(tetrahydro-2H-pyran-4-yl)propenamide]
0.017 µM | – | – | 0.153 µM | 98% | CCN(C(=O)[C@H](C)C1CCOCC1)c1cnc2[nH]c(-c3n[nH]c4c3C[C@@H]3C[C@]3(C)C4)nc2c1 [Example 19, (R)-N-Ethyl-N-(2-((4aS,5aR)-5a-methyl-1,4,4a,5,5a,6-hexahydrocyclopropa[f]indazol-3-yl)-3H-imidazo[4,5-b]pyridin-6-yl)-2-(tetrahydro-2H-pyran-4-yl)propenamide]
0.003 µM | 0.034 µM | 95% | – | – | C[C@@H](C(=O)N(C)c1cnc2[nH]c(-c3n[nH]c4c3C[C@H]3C(F)(F)[C@@]3(C)C4)nc2c1)N1CCOCC1 [Example 24, (S)-N-(2-((4aR,5aS)-5,5-Difluoro-5a-methyl-1,4,4a,5,5a,6-hexahydrocyclopropa[f]indazol-3-yl)-3H-imidazo[4,5-b]pyridin-6-yl)-N-methyl-2-morpholinopropanamide]
0.025 µM | 0.415 µM | 95% | – | – | C[C@@H](C(=O)N(CCO)c1cnc2[nH]c(-c3n[nH]c4c3C[C@@H]3C[C@]3(C)C4)nc2c1)C1CCOCC1 [Example 31, (R)-N-(2-Hydroxyethyl)-N-(2-((4aS,5aR)-5a-methyl-1,4,4a,5,5a,6-hexahydrocyclopropa[f]indazol-3-yl)-3H-imidazo[4,5-b]pyridin-6-yl)-2-(tetrahydro-2H-pyran-4-yl)propenamide]
0.085 µM | 0.471 µM | 94% | – | – | CCN(C(=O)[C@@H](C)N1CCOCC1)c1cnc2[nH]c(-c3n[nH]c4c3CCC(C)(C)C4)nc2c1 [Example 22, (R)-N-(2-(6,6-Dimethyl-4,5,6,7-tetrahydro-1H-indazol-3-yl)-3H-imidazo[4,5-b]pyridin-6-yl)-N-ethyl-2-morpholinopropanamide]
0.054 µM | 1.25 µM | 96% | – | – | CC(=O)N(C)CC(=O)N(C)c1cnc2nc(-c3n[nH]c4c3C[C@@H]3C[C@]3(C)C4)[nH]c2c1 [Example 80, N-Methyl-N-(2-((4aS,5aR)-5a-methyl-1,4,4a,5,5a,6-hexahydrocyclopropa[f]indazol-3-yl)-1H-imidazo[4,5-b]pyridin-6-yl)-2-(N-methylacetamido)acetamide]
0.1 µM | 0.466 µM | 95% | – | – | CN(C(=O)C(C)(C)C)c1cnc2nc(-c3n[nH]c4c3C[C@@H]3C[C@]3(C)C4)[nH]c2c1 [Example 86, N-Methyl-N-(2-((4aS,5aR)-5a-methyl-1,4,4a,5,5a,6-hexahydrocyclopropa[f]indazol-3-yl)-1H-imidazo[4,5-b]pyridin-6-yl)pivalamide]
0.023 µM | 0.121 µM | 91% | – | – | C[C@@H](C(=O)N(C)c1cnc2[nH]c(-c3n[nH]c4c3C[C@@H]3C[C@]3(C)C4)nc2c1)N1CCOCC1 [Example 28, (S)-N-Methyl-N-(2-((4aS,5aR)-5a-methyl-1,4,4a,5,5a,6-hexahydrocyclopropa[f]indazol-3-yl)-3H-imidazo[4,5-b]pyridin-6-yl)-2-morpholinopropanamide]
2.85 µM | 2.53 µM | 69% | – | – | C[C@@H](C(=O)N(C)c1cnc2[nH]c(-c3n[nH]c4c3C[C@H]3C[C@@]3(C)C4)nc2c1)N1CCOCC1 [Example 29, (2S)-N-Methyl-N-(2-(5a-methyl-1,4,4a,5,5a,6-hexahydrocyclopropa[f]indazol-3-yl)-3H-imidazo[4,5-b]pyridin-6-yl)-2-morpholinopropanamide]
0.008 µM | 0.079 µM | 97% | – | – | CCN(C(=O)[C@H](C)N1CCOCC1)c1cnc2[nH]c(-c3n[nH]c4c3C[C@@H]3C(F)(F)[C@]3(C)C4)nc2c1 [Example 30, (S)-N-(2-((4aS,5aR)-5,5-Difluoro-5a-methyl-1,4,4a,5,5a,6-hexahydrocyclopropa[f]indazol-3-yl)-3H-imidazo[4,5-b]pyridin-6-yl)-N-ethyl-2-morpholinopropanamide]
0.056 µM | 0.287 µM | 92% | – | – | CN(C(=O)CCC(C)(F)F)c1cnc2[nH]c(-c3n[nH]c4c3CCC(C)(C)C4)nc2c1 [Example 97, N-(2-(6,6-Dimethyl-4,5,6,7-tetrahydro-1H-indazol-3-yl)-3H-imidazo[4,5-b]pyridin-6-yl)-4,4-difluoro-N-methylpentanamide]
0.023 µM | 0.088 µM | 95% | – | – | CN(C(=O)C1(F)CCOCC1)c1cnc2nc(-c3n[nH]c4c3C[C@@H]3C[C@]3(C)C4)[nH]c2c1 [Example 61, 4-Fluoro-N-methyl-N-(2-((4aS,5aR)-5a-methyl-1,4,4a,5,5a,6-hexahydrocyclopropa[f]indazol-3-yl)-1H-imidazo[4,5-b]pyridin-6-yl)tetrahydro-2H-pyran-4-carboxamide]
0.028 µM | 0.182 µM | 97% | – | – | COCCOc1nc2[nH]c(-c3n[nH]c4c3C[C@@H]3C[C@]3(C)C4)nc2cc1N(C)C(=O)[C@H](C)N1CCOCC1 [Example 40, (S)-N-(5-(2-Methoxyethoxy)-2-((4aS,5aR)-5a-methyl-1,4,4a,5,5a,6-hexahydrocyclopropa[f]indazol-3-yl)-3H-imidazo[4,5-b]pyridin-6-yl)-N-methyl-2-morpholinopropanamide]
0.041 µM | 0.307 µM | 96% | – | – | C[C@@H](C(=O)N(C)c1cc2[nH]c(-c3n[nH]c4c3C[C@@H]3C[C@]3(C)C4)nc2nc1F)N1CCOCC1 [Example 17, (S)-N-(5-Fluoro-2-((4aS,5aR)-5a-methyl-1,4,4a,5,5a,6-hexahydrocyclopropa[f]indazol-3-yl)-1H-imidazo[4,5-b]pyridin-6-yl)-N-methyl-2-morpholinopropanamide]
0.036 µM | 0.974 µM | 106% | – | – | CN(C(=O)CN1CCCOC1=O)c1cnc2nc(-c3n[nH]c4c3C[C@@H]3C[C@]3(C)C4)[nH]c2c1 [Example 57, N-Methyl-N-(2-((4aS,5aR)-5a-methyl-1,4,4a,5,5a,6-hexahydrocyclopropa[f]indazol-3-yl)-1H-imidazo[4,5-b]pyridin-6-yl)-2-(2-oxo-1,3-oxazinan-3-yl)acetamide]
0.047 µM | 0.172 µM | 95% | – | – | COc1nc2[nH]c(-c3n[nH]c4c3C[C@@H]3C[C@]3(C)C4)nc2cc1N(C)C(=O)[C@H](C)N1CCOCC1 [Example 36, (S)-N-(5-Methoxy-2-((4aS,5aR)-5a-methyl-1,4,4a,5,5a,6-hexahydrocyclopropa[f]indazol-3-yl)-3H-imidazo[4,5-b]pyridin-6-yl)-N-methyl-2-morpholinopropanamide]
